From patent publication US20240245633A1, “ROR Gamma Agonists as Enhancers of Protective Immunity” (University of Florida Research Foundation, Incorporated, priority 2015, published 2024)

What was measured:
EL4 cells = test: PD-1 surface expression in EL4 cells by flow cytometry; format: cell-based, murine; conditions: compound 48 hr
Protocol: Using flow cytometery surface PD-1 expression was analyzed to determine if the decrease in gene expression of PD-1 correlates to a decrease of the protein on the cell surface, Cell: surface PD-1 expression was measured in murine and human T cell lines as well as in ex vivo differentiated murine TH17 cells. […] Next we examined the impact of compound treatment on differentiated murine TH17 cells. […] To determine if there was an increase in the active T cell population during TH17 cell differentiation, the population of CD62L^−PD1^− double negative cells was measured using flow cytometry. […] To determine if the effects of SR0987 on PD-1 expression would be observed in a human cell line, Jurkat T cells were treated with the compound.
Gene expression and Cell sorting. Jurkat T cells were pre-incubated with compounds for 48 hr and activated with phorbol 12-myristate 13-acetate (PMA, 50 ng/mL; Sigma) and ionomycin (1 μg/mL; Sigma) for 5 hr. For qPCR, mRNA was isolated with an RNeasy midi kit using DNase I (Qiagen), and cDNA was synthesized with high capacity cDNA Reverse Transcription kit (Applied Biosystems). IL17A, PD-1, and granzyme B gene expression were normalized to the expression of GAPDH. The sequence of primers used in this study are found in Table 2. For cell sorting, activated Jurkat T cells were stained with APC conjugated anti-human PD-1 antibody (eBioscience). […]

Gal4-RORγ = molecular target: T1, Gal4-RORγ (Homo sapiens, UniProt P51449); conditions: 30 μM, 2 μM ursolic acid
T1 sequence (P51449 269-508 limits assumed): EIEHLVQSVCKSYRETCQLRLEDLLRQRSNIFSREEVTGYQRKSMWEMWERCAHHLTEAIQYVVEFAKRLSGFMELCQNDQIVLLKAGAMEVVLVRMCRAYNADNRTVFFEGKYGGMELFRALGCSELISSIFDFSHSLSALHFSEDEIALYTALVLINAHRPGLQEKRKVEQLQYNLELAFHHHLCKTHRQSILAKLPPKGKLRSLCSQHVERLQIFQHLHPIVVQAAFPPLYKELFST

full length RORγt [1] = molecular target: T2, full length RORγt (Homo sapiens, UniProt P51449); test: Full-length RORγt co-transfection with IL17-Luc reporter in HEK293T cells; format: cell-based; conditions: 2 μM ursolic acid
T2 construct: full length RORγt was co-transfected along with a luciferase reporter; expressed in transfected cells; host or cells: HEK293T
T2 sequence (P51449 1-497 isoform P51449-2): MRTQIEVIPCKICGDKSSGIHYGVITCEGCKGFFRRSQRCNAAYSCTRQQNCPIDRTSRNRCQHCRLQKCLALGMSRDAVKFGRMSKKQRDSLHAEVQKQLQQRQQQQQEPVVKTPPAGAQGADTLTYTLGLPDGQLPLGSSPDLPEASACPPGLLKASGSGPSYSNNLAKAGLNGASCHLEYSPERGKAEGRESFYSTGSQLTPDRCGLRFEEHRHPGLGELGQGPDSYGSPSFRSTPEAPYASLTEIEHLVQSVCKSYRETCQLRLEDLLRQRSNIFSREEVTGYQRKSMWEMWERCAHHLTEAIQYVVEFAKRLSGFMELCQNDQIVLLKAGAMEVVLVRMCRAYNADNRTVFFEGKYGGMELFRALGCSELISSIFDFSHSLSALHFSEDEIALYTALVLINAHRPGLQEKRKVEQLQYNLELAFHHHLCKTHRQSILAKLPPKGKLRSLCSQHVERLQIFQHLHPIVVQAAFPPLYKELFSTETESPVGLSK
Text: (§1) In order to determine if these compounds could modulate RORγt activity in the context of the full-length receptor, we used a co-transfection system in HEK293T cells in which full length RORγt was co-transfected along with a luciferase reporter under the control of either a basic promoter containing five copies of an ROR response element (5×RORE) or a minimal IL17 promoter.

full length RORγt [2] = molecular target: T2, full length RORγt; test: Full-length RORγt co-transfection with 5×RORE-Luc reporter in HEK293T cells; format: cell-based; conditions: 2 μM ursolic acid
Text: as §1

## CC(C)=CCC[C@@H](C)[C@H]1CC[C@H]2[C@@H]3CC=C4C[C@@H](O)CC[C@]4(C)[C@H]3CC[C@]12C [desmosterol]
EL4 cells
  surface expression of PD-1: no effect
Gal4-RORγ
  induction of luciferase expression at highest concentration of the concentration response curve: ~2 fold
Full length RORγt [1]
  reporter gene expression, IL17 promoter: minimal induction of the reporter gene
Full length RORγt [2]
  reporter gene expression, 5×RORE promoter: minimal induction of the reporter gene
